Measurements taken from article PMC10952572, “Improved PIEZO1 agonism through 4‐benzoic acid modification of Yoda1” (British Journal of Pharmacology, 2023).

How the values were obtained:
hPIEZO1 = biological target: T1, hPIEZO1 (Homo sapiens, UniProt Q92508); assay: Intracellular Ca2+ measurement (Fura-2) in hPIEZO1-TREx cells; format: cell-based; settings: for Peak ΔCa2+i (ΔF340/380), median fold difference compared to Yoda1: 10 μM compound, hPIEZO1-TREx cells, paired with 10 μM Yoda1; for Ability to evoke intracellular Ca2+ elevation: 10 μM, cells overexpressing hPIEZO1, compared with Yoda1
T1 construct: expressed in transfected cells
T1 sequence (Q92508 whole entry): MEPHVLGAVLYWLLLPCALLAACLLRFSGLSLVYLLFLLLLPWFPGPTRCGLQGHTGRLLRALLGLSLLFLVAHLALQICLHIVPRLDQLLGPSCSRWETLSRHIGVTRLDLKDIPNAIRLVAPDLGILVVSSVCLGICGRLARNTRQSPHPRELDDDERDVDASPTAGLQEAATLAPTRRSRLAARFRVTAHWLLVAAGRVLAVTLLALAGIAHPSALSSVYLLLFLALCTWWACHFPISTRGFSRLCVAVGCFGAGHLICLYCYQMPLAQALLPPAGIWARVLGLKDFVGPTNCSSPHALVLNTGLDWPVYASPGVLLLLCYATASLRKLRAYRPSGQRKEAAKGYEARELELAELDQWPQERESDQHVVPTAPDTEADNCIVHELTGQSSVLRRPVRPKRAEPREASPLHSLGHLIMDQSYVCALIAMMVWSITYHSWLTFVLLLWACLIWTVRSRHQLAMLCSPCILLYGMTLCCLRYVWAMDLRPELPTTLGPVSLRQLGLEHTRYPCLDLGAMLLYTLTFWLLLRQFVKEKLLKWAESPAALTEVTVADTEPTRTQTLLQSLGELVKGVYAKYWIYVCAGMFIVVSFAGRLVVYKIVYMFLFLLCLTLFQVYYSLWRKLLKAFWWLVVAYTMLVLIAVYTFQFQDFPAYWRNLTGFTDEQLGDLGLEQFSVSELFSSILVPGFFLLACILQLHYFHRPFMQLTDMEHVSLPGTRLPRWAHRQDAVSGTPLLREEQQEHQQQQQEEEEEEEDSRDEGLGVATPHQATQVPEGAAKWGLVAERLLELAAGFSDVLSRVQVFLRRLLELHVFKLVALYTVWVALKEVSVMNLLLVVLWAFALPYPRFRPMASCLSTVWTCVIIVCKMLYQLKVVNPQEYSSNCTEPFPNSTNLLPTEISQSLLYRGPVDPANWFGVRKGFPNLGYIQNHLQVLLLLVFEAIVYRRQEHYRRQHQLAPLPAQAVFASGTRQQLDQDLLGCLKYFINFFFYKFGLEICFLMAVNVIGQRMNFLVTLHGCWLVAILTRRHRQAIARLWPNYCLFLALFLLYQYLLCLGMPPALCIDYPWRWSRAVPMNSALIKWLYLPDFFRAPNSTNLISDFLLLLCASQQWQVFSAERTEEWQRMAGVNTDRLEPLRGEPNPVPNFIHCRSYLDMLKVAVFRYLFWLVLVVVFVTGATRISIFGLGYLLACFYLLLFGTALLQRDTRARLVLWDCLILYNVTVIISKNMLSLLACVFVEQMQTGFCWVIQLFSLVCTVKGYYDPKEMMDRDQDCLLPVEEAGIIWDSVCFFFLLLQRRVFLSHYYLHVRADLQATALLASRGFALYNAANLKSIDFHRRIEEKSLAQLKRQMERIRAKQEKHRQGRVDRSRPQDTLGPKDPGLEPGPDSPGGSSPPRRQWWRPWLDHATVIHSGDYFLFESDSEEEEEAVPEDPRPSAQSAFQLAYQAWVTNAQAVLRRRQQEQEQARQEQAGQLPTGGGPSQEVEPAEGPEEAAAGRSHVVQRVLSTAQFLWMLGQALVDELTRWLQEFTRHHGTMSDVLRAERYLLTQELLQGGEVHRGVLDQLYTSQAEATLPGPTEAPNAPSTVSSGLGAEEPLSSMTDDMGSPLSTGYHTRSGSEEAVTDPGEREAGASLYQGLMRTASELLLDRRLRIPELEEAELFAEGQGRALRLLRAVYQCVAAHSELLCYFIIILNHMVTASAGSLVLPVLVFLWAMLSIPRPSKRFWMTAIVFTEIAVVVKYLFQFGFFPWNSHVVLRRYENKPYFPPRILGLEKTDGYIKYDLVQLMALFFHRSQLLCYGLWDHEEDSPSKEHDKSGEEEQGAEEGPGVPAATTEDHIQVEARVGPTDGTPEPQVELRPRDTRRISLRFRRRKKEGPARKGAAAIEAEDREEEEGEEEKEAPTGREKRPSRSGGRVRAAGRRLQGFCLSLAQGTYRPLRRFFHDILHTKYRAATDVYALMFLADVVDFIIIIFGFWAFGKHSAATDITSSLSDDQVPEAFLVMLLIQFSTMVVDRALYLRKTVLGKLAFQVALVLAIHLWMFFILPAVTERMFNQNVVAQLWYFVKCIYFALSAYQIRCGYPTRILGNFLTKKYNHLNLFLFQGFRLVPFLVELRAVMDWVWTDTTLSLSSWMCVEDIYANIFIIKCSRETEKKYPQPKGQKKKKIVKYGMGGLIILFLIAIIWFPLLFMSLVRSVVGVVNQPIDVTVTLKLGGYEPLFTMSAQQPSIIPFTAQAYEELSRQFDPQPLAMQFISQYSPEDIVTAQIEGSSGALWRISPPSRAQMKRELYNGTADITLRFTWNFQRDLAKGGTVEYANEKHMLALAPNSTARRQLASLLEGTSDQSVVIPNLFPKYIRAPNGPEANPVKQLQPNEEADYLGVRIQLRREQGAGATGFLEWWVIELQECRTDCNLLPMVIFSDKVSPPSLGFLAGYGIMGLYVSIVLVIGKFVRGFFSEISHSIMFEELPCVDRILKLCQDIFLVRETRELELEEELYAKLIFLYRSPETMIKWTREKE
Source text: HEK T‐REx™ 293 cells (Thermo Fisher Cat #R71007, RRID:CVCL_D585) that overexpress hPIEZO1 upon induction with tetracycline were generated as previously described (Rode et al., [2017]). PIEZO1‐GFP was used as a PCR template to clone hPIEZO1 coding sequence into pcDNA™4/TO between HindIII and EcoRI restriction sites. PIEZO1 was amplified as two fragments using the following primers: (HindIII‐PIEZO1‐Fw: […] and BamHI‐Int.PIEZO1‐Rv: […]) and (BamHI‐Int. PIEZO1‐Fw: […] and EcoRI‐PIEZO1‐Rv: […]). The two fragments were fused using BamHI restriction site, resulting in the full‐length PIEZO1 coding sequence with the c4182a silent mutation. HEK T‐REx™ 293 cells (Invitrogen) were transfected with pcDNA4/TO‐PIEZO1 using Lipofectamine 2000 (Thermo Fisher Scientific). Subsequently, cells were treated with 10 μg·ml^−1 blasticidin and 200 μg·ml^−1 zeocin (InvivoGen) to select stably transfected cells. Single‐cell clones were isolated and analysed individually. Expression was induced by treating the cells for 24 h with 10 ng·ml^−1 tetracycline and analysed by quantitative RT‐PCR and Western blot. These cells are referred to as hPIEZO1‐TREx.
HEK 293‐TREx cells and their stably transfected derivatives or transiently transfected HEK 293 or HeLa cells were seeded at a density of 7.5 × 10^4 cells per well into poly‐D‐lysine‐coated 96‐well plates. The plates were either commercially pre‐coated with poly‐D‐lysine (Greiner Bio‐One #655946) or (Greiner Bio‐One #655090) were coated in‐house with 35 μl of a 10 μg·ml^−1 poly‐D‐lysine (Bio‐Techne, Cultrex # 3439‐100‐01) in sterile deionised water per well for at least 24 h and rinsed three times with 100 μl per well sterile D‐PBS before addition of cells. HUVECs were seeded into tissue culture‐treated 96‐well plates (Greiner Bio‐One #655090) at a density of either 2.5 × 10^4 cells 24 h before experimentation or 1.25 × 10^4 cells 48 h before experimentation. Cells were incubated with 2 μM Fura‐2‐AM (Molecular Probes™) in the presence of 0.01% (wt./vol.) pluronic F127 (Sigma‐Aldrich #P2443) in standard bath solution (SBS) for 1 h at 37°C. Cells were washed with SBS for 30 min at room temperature. Alternatively, if inhibitors were being tested, these were added at this time, immediately following a wash in SBS. (−)‐Englerin A (Akbulut et al., [2015]) was used in SBS containing 0.01% pluronic acid as a dispersing agent to minimise aggregation of compound. Unless otherwise stated, the final concentration of DMSO was 0.2% (vol./vol). Working 2000× stock solutions of test compounds were freshly made in DMSO and diluted 1000‐fold in SBS during the 30 min SBS wash/inhibitor pre‐incubation period to obtain 2× solutions for injection. When testing the highest concentration of Yoda1, KC159 and KC289 (30 μM), the final DMSO concentration was 0.6% (vol./vol.). Measurements were made at room temperature on a 96‐well fluorescence plate reader (FlexStation 3, Molecular Devices, Sunnyvale, CA, USA) controlled by SoftMax Pro software v7.0.3. Recipient wells containing 80 μl SBS/0.2% (vol./vol.) DMSO vehicle or inhibitor compound received 80 μl 2× compound at an injection rate of 1 μl·s^−1, and the pipette introduced liquids from a height setting of 70 μl. No trituration was performed. For recordings using Fura‐2, the change in intracellular Ca was indicated as the ratio of Fura‐2 emission (510 nm) intensities at 340 and 380 nm excitation. Photomultipliers were set to medium sensitivity. SBS contained 130 mM NaCl, 5 mM KCl, 8 mM D‐glucose, 10 mM HEPES, 1.2 mM MgCl2 and 1.5 mM CaCl2, and the pH was adjusted to 7.4 with NaOH. The solution was filtered through a 0.2 μm bottle‐top filter prior to use and handled aseptically thereafter.
For intracellular Ca^2+ (Ca^2+i) measurements, technical intra‐experiment replicates were used to improve confidence in the data. Analysis of individual experiments was performed to obtain mean ± SEM values. […]

mouse portal vein = assay: Wire myography, relaxation of phenylephrine pre-constricted vein; settings: for Relaxation of portal vein: 0.1-10 μM, pre-constricted with 10 μM phenylephrine; for EC50: mouse portal vein pre-constricted with 10 μM phenylephrine, Hill fit
Protocol: Mice were anaesthetised with isoflurane (5% induction and 1.5% maintenance) in 95% O2 according to Schedule 1 procedure approved by the UK Home Office. The portal vein was quickly dissected and placed in Krebs solution. The Krebs PV solution consisted of 118 mM NaCl, 4.7 mM KCl, 2.5 mM CaCl2, 1.2 mM KH2PO4, 1.2 mM MgSO4·7H2O, 25.2 mM NaHCO3 and 11.1 mM glucose. By means of a dissecting microscope, adhering perivascular tissue was carefully removed and the vein was cut into 1 mm segments.
Vein segments were mounted onto two thin stainless steel wires in an isometric myograph (Multi Wire Myograph System 620M from Danish Myograph Technology [DMT]), for which the force transducer was calibrated once per month according to the manufacturer's instructions. The recording chamber was filled with gassed Krebs solution (95% O2/5% CO2, pH 7.4). The segments were then stretched to a normalised internal diameter according to the manufacturer's instructions. The mounted rings were kept in a 5 ml chamber containing Krebs solution at 37°C and continuously bubbled with a gas mixture of 95% O2 and 5% CO2 (pH 7.4). After an equilibration period of 60 min, the contractile function of the vessel was tested by replacing the Krebs solution by 60 mM K^+ solution. Following washout, the vein was contracted once with 10 μM phenylephrine and then Yoda1, KC159 or KC289 was applied with the concentrations of 0.1 to 10 μM. The NOS inhibitor, L‐NAME, (100 μM), was pre‐incubated for 20 min before the PIEZO1 modulator.
Because the anticipated effect of test compounds was to cause vessel relaxation, phenylephrine was applied to induce tension and the maximum value of this tension was defined as 0% relaxation (no relaxation). The value of tension immediately prior to application of phenylephrine was defined as 100% relaxation. Data are normalised to these values because, otherwise, the intrinsic variability in the absolute amount of tension induced by phenylephrine obscured exploration of the relaxant effect of compounds.
OriginPro 2020 was used for the analysis of myography data. Myography traces show readings taken every 0.5 or 1 s and were smoothed with the Savitzky–Golay filter set to 70 points. To compare the agonistic activity of Yoda1 analogues, basal vessel tension prior to compound injection was subtracted. Maximal tension in the presence of PE alone was used to define 0% relaxation. The tension value prior to PE application was defined as 100% relaxation. Following the addition of test compounds, tension readings were taken at the last time point of the treatments and expressed as percentage relaxation.

SMILES	Peak ΔCa2+i (ΔF340/380), median fold difference compared to Yoda1 (hPIEZO1)	Ability to evoke intracellular Ca2+ elevation (hPIEZO1)	Relaxation of portal vein (mouse portal vein)	EC50 (mouse portal vein)	EC50 (mouse portal vein; Mus musculus)	Relaxation in portal vein from PIEZO1ΔEC mice (mouse portal vein; endothelial PIEZO1 deletion versus control mice)	Relaxant effect after L-NAME (mouse portal vein; pre-incubation with 100 μM L-NAME)
O=C(O)c1ccccc1-c1nnc(SCc2c(Cl)cccc2Cl)s1 [KC157]	−24.4 fold	–	–	–	–	–	–
O=C(O)c1ccc(-c2nnc(SCc3c(Cl)cccc3Cl)s2)cc1 [KC159]	+1.8 fold	robust responses that are larger than those of Yoda1	concentration‐dependent relaxation	1140 nM	–	–	–
O=C([O-])c1ccc(-c2nnc(SCc3c(Cl)cccc3Cl)s2)cc1.[K+] [KC289]	+2.8 fold	robust responses that are larger than those of Yoda1	concentration‐dependent relaxation	–	1200 nM	inhibited by endothelial PIEZO1 deletion	abolishes the relaxant effect
Clc1cccc(Cl)c1CSc1nnc(-c2cnccn2)s1 [Yoda1, 2‐[5‐[[(2,6‐dichlorophenyl)methyl]thio]‐1,3,4‐thiadiazol‐2‐yl]pyrazine]	–	–	concentration‐dependent relaxation	–	–	–	–
